Reference: patent publication US11419902B2, “Compositions comprising bacterial strains” (4D Pharma Research Limited, priority 2018, dated 2022)

Experiments:
[1] = test system: HDAC; experiment: HDAC inhibition on whole HT-29 cells; assay type: cell-based
Method: Pure cultures of bacteria were grown anaerobically in YCFA+ broth until they reached their stationary growth phase. Cultures were centrifuged at 5,000×g for 5 minutes and the cell-free supernatant (CFS) was filtered using a […] (Millipore, UK). 1 mL aliquots of the CFS were stored at −80° C. until use. Sodium butyrate, hexanoic and valeric acid were obtained from Sigma Aldrich (UK) and suspensions were prepared in YCFA+ broth.
To investigate which metabolites were responsible for the strain-induced HDAC inhibition, different concentrations of hexanoic acid, valeric acid and sodium butyrate were measured for their HDAC inhibition on whole HT-29 cells and on HT-29 cell lysate.

[2] = test system: HT29 colorectal cancer cell line; experiment: Clonogenic survival of HT29 cell line; assay type: cell-based; conditions: HT29, relative to both negative controls (cell line only, and YCFA+ +DMSO)
Method: Cells were trypsinized and 200 cells/well were seeded in 12-well plates. After 48 h cells were treated with the appropriate drugs in absence (YCFA+) or presence of 10% bacterial supernatant and were re-fed every three days. On day 21 after seeding, cells were fixed in ice-cold methanol and stained with Crystal Violet blue. […] were counted and survival fraction was calculated as number of colonies divided by the number of plated cells (plating efficiency) of treated divided by the plating efficiency of control.
The effects of the following treatments were assessed on the HT29 colorectal cancer cell line (V600E oncogenic mutation in BRAF): (1) MRx0029; (2) Vemurafenib (VEMU) in YFCA+ medium; (3) VEMU and MRx0029; (4) Azacytidine-C (Aza-c) in YCFA+ medium; (5) Aza-c and MRx0029; (6) VEMU, Aza-c and MRx0029.

[3] = test system: TLR-4, CD11b; experiment: Gene expression of inflammatory markers in brain tissue (qPCR); assay type: in vivo, BALBc mice; conditions: oral gavage 1×10^9 CFU for 6 consecutive days
Method: BALBc (Envigo, UK) adult male mice were group housed under a 12 h light-dark cycle; standard rodent chow and water were available ad libitum. All experiments were performed in accordance with European guidelines following approval by University College Cork Animal Ethics Experimentation Committee. Animals were 8 weeks old at the start of the experiment.
Animals were allowed to habituate to their holding room for one week after arrival into the animal unit. They receive oral gavage (200 μL dose) of live biotherapeutics at a dose of 1×10^9 CFU for 6 consecutive days between 15:00 and 17:00. On day 7, the animals are decapitated, and tissues are harvested for experimentation. […]
Total RNA was extracted using the mirVana™ miRNA Isolation kit (Ambion/Llife technologies, Paisley, UK) and DNase treated (Turbo DNA-free, Ambion/life technologies) according to the manufacturers recommendations. RNA was quantified using NanoDrop™ spectrophotometer (Thermo Fisher Scientific Inc., Wilmington, Del., USA) according to the manufacturer's instructions. RNA quality was assessed using the Agilent Bioanalyzer (Agilent, Stockport, UK) according to the manufacturer's procedure and an RNA integrity number (RIN) was calculated. […] Quantitative PCR was carried out using probes (6 carboxy fluorescein—FAM) designed by Applied Biosystems to mouse specific targeted genes, while using β-actin as an endogenous control. […]

[4] = test system: neuron specific enolase (NSE)/enolase 2; experiment: Enolase 2 expression in SH-SY5Y cells (qPCR); assay type: cell-based; conditions: 10% bacterial supernatants 17 h, vs YCFA+ culture control
Method: SH-SY5Y were plated in 6 well plates at a density of 0.5×10^6 cells. After 24 h, cells were treated in differentiation medium (growth medium containing 1% FBS) with 10% bacterial supernatants or YCFA+ for 17 h. Cells were collected, and total RNA was isolated according to the RNeasy mini kit protocol (Qiagen). cDNA was made using the High Capacity cDNA reverse transcription kit (Applied Biosystems). Gene expression was measured by qPCR. GAPDH was used as internal control. Fold change was calculated according to the 2^(−ΔΔct) method. Primer sets used are listed as SEQ ID NOs: 2, 3, 13 and 14.

[5] = test system: IL-6; experiment: IL-6 secretion by astrocytoma cell line U373 (ELISA); assay type: cell-based, Human; conditions: U373 cells, 100 μl bacteria supernatant, 24 h, vs untreated and YCFA+ controls

Megasphaera massiliensis MRx0029
HDAC inhibition on whole HT-29 cells [1]: strong HDAC inhibition | clonogenic survival [2]: decreased clonogenic survival | expression of CD11b in the amygdala [3]: increased expression of CD11b | expression of TLR-4 in the amygdala [3]: significantly increased the expression of TLR-4 | Enolase 2 expression [4]: statistically-significant effect of suppressing | IL-6 secretion [5]: upregulates IL-6 secretion
